Patent US20240156861A1, “Cisplatin particles and uses thereof” (CRITITECH, INC., priority 2022, published 2024)

How the values were obtained:
Type in all cases: physicochemical
[1] = Specific Surface Area (SSA) by BET sorptometry
Method: As used herein, the “specific surface area” is the total surface area of the cisplatin particle per unit of cisplatin mass as measured by the Brunauer—Emmett—Teller (“BET”) isotherm (i.e.: the BET SSA). As will be understood by those of skill in the art, the SSA is determined on a per gram basis and takes into account both agglomerated and non-agglomerated cisplatin particles in the composition. The BET specific surface area test procedure is a compendial method included in both the United States Pharmaceopeia and the European Pharmaceopeia. The cisplatin particles have a specific surface area (SSA) of at least 3.5 m^2/g. In various further embodiments, the cisplatin particles have a SSA of at least 4 m^2/g, 5 m^2/g, 6 m^2/g, 7 m^2/g, 8 m^2/g, 9 m^2/g, 10 m^2/g, 11 m^2/g, 12 m^2/g, 13 m^2/g, 14 m^2/g, […] m^2/g, 17 m^2/g, 18 m^2/g, 19 m^2/g 20 m^2/g 21 m^2/g, 22 m^2/g, 23 m^2/g, or 24 m^2/g.
Specific Surface Area (SSA) determination by BET Sorptometry
Surface area analyses were conducted on a Quantachrome NOVAtouch™ LX2 BET Sorptometer. […] Surface area results can be found in Table 1.

[2] = Particle Size Distribution (PSD) by laser diffraction, Malvern Mastersizer 3000; details: dispersed in ethyl acetate
Method: Particle Size Distribution (PSD) by Laser Diffraction
Particle size analyses were conducted on a Malvern Mastersizer™ 3000 using the Hydro MV dispersion unit. A non-validated general PSD method/dispersant method was used to analyze the cisplatin samples. The sample preparation procedure performed was as follows:
Weigh 10 to 20 mg of cisplatin into a 30-mL vial, add 20 mL of ethyl acetate. Disperse the sample by vortexing then sonicating the suspension in an ultrasonic bath for 1 minute. Then transfer the sample suspension to the Malvem Hydro MV dispersion unit to obtain obscuration between 5 and 15%.

[3] = Bulk density analysis (modified USP <616> Method I, 10 mL graduated cylinder); details: not tapped
Method: As used herein, the bulk density of the cisplatin particles is the mass of the totality of particles in the composition divided by the total volume they occupy when poured into a graduated cylinder and not tapped. The total volume includes particle volume, inter-particle void volume, and internal pore volume.
Bulk density analysis by modified USP <616>Bulk Density of Powders Method I
Bulk density analyses were conducted using a 10 mL graduated cylinder due to low sample volume. SC1 was the only precipitate measured due to insufficient materials available for analysis from SC2 and SC3. […] Bulk density results can be seen in Table 1.

N.N.[Cl][Pt][Cl] [Raw, Cisplatin]
Surface Area [1]: 2.44 m^2/g
PSD - Mastersizer Dv10 [2]: 1.72 μm
PSD - Mastersizer Dv50 [2]: 10.9 μm
PSD - Mastersizer Dv90 [2]: 25.9 μm
Bulk Density [3]: 1.01 g/mL
